Patent US20250144176A1, “COMPOSITIONS COMPRISING OSTEOPONTIN (OPN)” (SOCIETE DES PRODUITS NESTLE S.A., priority 2022, published 2025)

Legend:
lipopolysaccharide (LPS) = conditions: early life dietary supplementation; cited from earlier work
immune cell profile = conditions: infants fed formula supplemented with bovine OPN; cited from earlier work
[1] = test system: pneumonia virus of mice (PVM); assay: Neonatal mouse model of PVM-induced bronchiolitis: airway smooth muscle remodeling by α-smooth muscle actin immunohistochemistry; type: in vivo, mice (C57BL/6 pups); conditions: 9 dpi; OPNenriched group, remodeling dysregulated in OPN− group; FIG. 7
From the text: (§1) C57BL/6 pups were either nursed by OPN-sufficient or OPN-deficient dams.
(§2) At postnatal day 5 (PND5), mice receiving OPN-deficient mother's milk were fed with either a whey protein concentrate (WPC) enriched in OPN (OPNenriched group) or a control WPC (OPN− group) once daily for 15 consecutive days.
(§3) In a similar way, at PND5, mice receiving OPN-sufficient mother's milk were fed with control WPC (OPN+ group) once daily for 15 consecutive days.
(§4) At PND10, all animals were infected intra-nasally (i.n.) with 10 PFU of PVM (J3666) to induce bronchiolitis.
(§5) The used OPN-enriched WPC contained 79 g protein per 100 g, and 729 mg OPN per 100 g. The pups in the OPNenriched group were fed the OPN-enriched WPC as a supplement to deliver 12 μg OPN per average gram of bodyweight per day.

[2] = test system: pneumonia virus of mice (PVM); assay: Neonatal mouse model of PVM-induced bronchiolitis: lung immune cells counted by multi-colour flow cytometry; type: in vivo, mice (C57BL/6 pups)
From the text: as §1, §2, §3, §4, §5
To investigate whether OPN intervention has an impact on immune cell composition, the number of pDCs, CD4+ and CD8+ T cells and neutrophils in lung tissues 5 and/or 9 days post infection were enumerated using multi-colour flow cytometry. Isolated single-cell suspensions from the lungs were washed with PBS/2% FCS, and red blood cells were lysed using Gey's buffer. Cells were washed again, followed by incubation with anti-FcγRIII/II for 15 min at 4° C. Cells were stained using fluorescently labeled antibodies described in the gating strategies herein, with DAPI, 7-AAD, or Zombie NIR used to exclude dead cells.

[3] = test system: pneumonia virus of mice (PVM); assay: Neonatal mouse model of PVM-induced bronchiolitis: viral load (PVM-positive airway epithelial cells) and airway epithelial sloughing; type: in vivo, mice (C57BL/6 pups)
From the text: as §1, §2, §3, §4, §5
To assess whether OPN intervention has an impact on pathogen expansion, viral load in PVM-infected mice was assessed as the percentage of PVM-positive airway epithelial cells (AEC) stained with an antibody against a specific PVM-glycoprotein. […] AEC detachment is a key feature of viral bronchiolitis and known to be associated with disease severity and viral load. Sloughing of the airway epithelium was quantified by measuring the length of sloughed airway epithelium and expressing this as a percentage of the basement membrane length of a single airway.

bovine OPN: Bovine milk osteopontin, 262 residues, used as dietary supplement in cited studies
inflammation resulting from LPS administration (lipopolysaccharide (LPS)): reduced inflammation
immune cell profile of infants (immune cell profile): more similar to breastfed infants

osteopontin [OPN]
pathological airway smooth muscle remodeling (ASM area) [1]: attenuated pathological airway smooth muscle remodeling
number of CD4+ cells in lung tissues ([2]; 5 dpi (peak of viral infection), OPNenriched group vs OPN− group, FIG. 4a): significantly higher number
CD4+ T cell accumulation in the lungs ([2]; 9 dpi (peak of immunopathology), OPNenriched group vs OPN− group, FIG. 4b): significant decline
neutrophil infiltration to the airways (granulocytic inflammation) ([2]; 9 dpi, FIG. 6): reduced granulocytic inflammation
number of pDCs in the lung ([2]; OPNenriched group vs OPN− group, FIG. 3): increased number
virus infected (PVM-positive) airway epithelial cells (AEC), percentage ([3]; 5 dpi, OPNenriched group vs OPN− group, 12 μg OPN per gram bodyweight per day, once daily for 15 days from PND5, FIG. 2a): significant decrease
sloughing of the airway epithelium (percentage of basement membrane length) ([3]; 9 dpi, OPNenriched group vs OPN+ group, sloughing significantly elevated in OPN− group, FIG. 2b): close to the OPN+ group
